Measurements as given in ChEMBL document CHEMBL1152505, “Enaminones 10. Molecular modeling aspects of the 5-methylcyclohexenone derivatives” (Bioorg Med Chem, 2009).

How the values were obtained:
Mus musculus [1] = species: Mus musculus; experiment: Anticonvulsant activity in mouse assessed as inhibition of maximal electroshock-induced seizures; assay type: functional
[2] = Toxicity in mouse; assay type: organism-based; conditions: in vivo
Mus musculus [3] = species: Mus musculus; experiment: Protective index, ratio of TD50 for mouse to ED50 for maximal electroshock-induced mouse seizure model; assay type: functional
Mus musculus [4] = species: Mus musculus; experiment: Anticonvulsant activity against maximal electroshock-induced seizures in mouse assessed as time to peak effect; assay type: functional
Rattus norvegicus [5] = species: Rattus norvegicus; experiment: Anticonvulsant activity in rat assessed as inhibition of maximal electroshock-induced seizures; assay type: functional
[6] = Toxicity in rat; assay type: organism-based; conditions: in vivo
Rattus norvegicus [7] = species: Rattus norvegicus; experiment: Protective index, ratio of TD50 for rat to ED50 for maximal electroshock-induced rat seizure model; assay type: functional
Rattus norvegicus [8] = species: Rattus norvegicus; experiment: Anticonvulsant activity against maximal electroshock-induced seizures in rat assessed as time to peak effect; assay type: functional

| SMILES | ED50 (Mus musculus [1]) [mg/kg] | TD50 [2] [mg/kg] | PI (Mus musculus [3]) | Time (Mus musculus [4]) [h] | ED50 (Rattus norvegicus [5]) [mg/kg] | TD50 [6] [mg/kg] | PI (Rattus norvegicus [7]) | Time (Rattus norvegicus [8]) [h] |
| --- | --- | --- | --- | --- | --- | --- | --- | --- |
| CC1CC(=O)C=C(Nc2ccc(Cl)cc2)C1 (stereo unspecified) | 16.7 | 111 | 6.6 | 0.25 | 14.7 | > 186 | >83.3 | 1 |
| CC1CC(=O)C=C(Nc2ccc(OC(F)(F)F)cc2)C1 (stereo unspecified) |  |  |  |  | 6.5 | > 400 | >62 | 0.5 |
| CC1CC(=O)C=C(Nc2ccc(C(F)(F)F)cc2)C1 (stereo unspecified) |  |  |  |  | 10.3 | > 500 | >48.4 | 1 |
| CC1CC(=O)C=C(Nc2ccc(Br)cc2)C1 (stereo unspecified) |  |  |  |  | 7.6 | > 500 | >65.8 | 0.5 |
| CC1CC(=O)C=C(Nc2ccc(I)cc2)C1 (stereo unspecified) | 77 | 344 | 4.5 | 0.25 | 17.6 | > 500 | >28.3 | 2 |
| COc1cccc(NC2=CC(=O)CC(C)C2)c1 (stereo unspecified) |  |  |  |  | 39.4 | > 500 | >12.7 | 0.5 |
| CC1CC(=O)C=C(Nc2ccc([N+](=O)[O-])cc2)C1 (stereo unspecified) |  |  |  |  | 18.4 | > 500 | >27.4 | 4 |
